The values that follow come from ChEMBL document CHEMBL5576128, “Discovery of Potent Isoquinolinequinone N-Oxides to Overcome Cancer Multidrug Resistance” (J Med Chem, 2024).

SMILES strings stand for the structures. Activity calls are given as the source filed them. No cut-off for these calls is given here.

Series [1] relates to NCI-H460. The series is described as follows: Effect on PARP-1 expression in human NCI-H460 cells at 0.35 to 0.7 uM incubated for 48 hrs by Western blotting analysis. Type of series: functional, cell-based. Conditions: dose 0.35-0.7 µM. A general note: A western blot detects proteins with antibodies after separation by electrophoresis.
Series [2] has as its system NCI-H460. The series is described as follows: Upregulation of p-histone H2A.X expression in human NCI-H460 cells at high concentration incubated for 48 hrs by Western blotting analysis. Type of series: functional, cell-based.
In series [3] the test system is NCI-H460. In words: Upregulation of cyclin D1 expression in human NCI-H460 cells at 0.35 to 0.7 uM incubated for 48 hrs by Western blotting analysis. Type of series: functional, cell-based. Conditions: dose 0.35-0.7 µM.
For series [4], the system named is NCI-H460. The series is described as follows: Upregulation of p21 expression in human NCI-H460 cells at 0.7 uM incubated for 48 hrs by Western blotting analysis. The format is functional, cell-based.
The test system of series [5] is DLD-1. The series is described as follows: Inhibition of human DLD-1 cells spheroid viability by CellTiter-Glo 3D viability assay. Type of series: functional, cell-based. Background: In ATP-based viability assays light output follows the ATP content of the culture.
Series [6] has as its system NCI-H460. In words: Effect on LC3-II expression in human NCI-H460 cells at 0.35 to 0.7 uM incubated for 48 hrs by Western blotting analysis. Type of series: functional, cell-based. The settings on record: dose 0.35-0.7 µM.
Series [7] has as its system DLD-1. In words: Effect on human DLD-1 cells […] assessed as change in compactness at 0.35 to 0.7 uM incubated for 48 hrs. The format is functional, cell-based. The settings on record: dose 0.35-0.7 µM.
In series [8] the test system is Paclitaxel-resistant DLD1-TxR cells. In words: Effect on human Paclitaxel-resistant DLD1-TxR cells […] assessed as change in compactness at 0.35 to 0.7 uM incubated for 48 hrs. The format is functional, cell-based. The settings on record: dose 0.35-0.7 µM.
In series [9] the test system is MCF-12A. In words: Cytotoxicity against human MCF-12A cells at 1 to 5 uM incubated for 48 hrs by SRB method. Type of series: toxicity, cell-based. Conditions: dose 1-5 µM. A general note: In SRB staining, fixed cells bind dye roughly in proportion to their protein.
Series [10] relates to NCI-H460. The series is described as follows: Induction of apoptosis in human NCI-H460 cells at 0.35 to 0.7 uM incubated for 48 hrs by Annexin-V FITC/propidium iodide staining based flow cytometry analysis. The settings on record: dose 0.35-0.7 µM. Type of series: functional, cell-based.
In series [11] the test system is NCI-H460. The series is described as follows: Effect on human NCI-H460 cells […] assessed as change in diameter at 0.35 to 0.7 uM incubated for 48 hrs. Type of series: functional, cell-based. Conditions: dose 0.35-0.7 µM.
In series [12] the test system is NCI-H460. The series is described as follows: Inhibition of human NCI-H460 cells spheroid viability by CellTiter-Glo 3D viability assay. The format is functional, cell-based.
Series [13] deals with NCI-H460. In words: Induction of cell cycle arrest in human NCI-H460 cells assessed as increase in G1 phase cells at 0.35 to 0.7 uM incubated for 48 hrs by propidium iodide staining based flow cytometry analysis. The format is functional. The settings on record: dose 0.35-0.7 µM.
Series [14] deals with NCI-H460. In words: Induction of DNA damage in human NCI-H460 cells at 0.7 uM incubated for 48 hrs by Western blotting analysis. Type of series: functional, cell-based.
Series [15] has as its system NCI-H460. The series is described as follows: Induction of cell cycle arrest in human NCI-H460 cells assessed as decrease in S phase cells at 0.35 to 0.7 uM incubated for 48 hrs by propidium iodide staining based flow cytometry analysis. Type of series: functional. Conditions: dose 0.35-0.7 µM.
The subject of series [16] is Paclitaxel-resistant DLD1-TxR cells. In words: Inhibition of human Paclitaxel-resistant DLD1-TxR cells spheroid viability by CellTiter-Glo 3D viability assay. The format is functional, cell-based.
Series [17] concerns the target ATP-dependent translocase ABCB1 (Homo sapiens, UniProt P08183). The series is described as follows: Inhibition of P-gp mediated drug efflux in human NCI-H460 cells assessed as accumulation of rhodamine-123 accumulation at 10 to 20 uM incubated for 1 hr by flow cytometry analysis. The format is cell-based. The settings on record: nci-h460, 1 h, dose 10-20 µM.
Series [18] deals with Doxorubicin-resistant NCI-H460/R. The series is described as follows: Effect on human Doxorubicin-resistant NCI-H460/R cells […] assessed as change in compactness at 0.35 to 0.7 uM incubated for 48 hrs. The format is functional, cell-based. Conditions: dose 0.35-0.7 µM.
In series [19] the test system is NCI-H460. In words: Effect on LC3-I expression in human NCI-H460 cells at 0.35 to 0.7 uM incubated for 48 hrs by Western blotting analysis. The format is functional, cell-based. Conditions: dose 0.35-0.7 µM.
For series [20], the system named is DLD-1. In words: Effect on human DLD-1 cells […] assessed as change in diameter at 0.35 to 0.7 uM incubated for 48 hrs. The format is functional, cell-based. Conditions: dose 0.35-0.7 µM.
Series [21] deals with NCI-H460. In words: Effect on human NCI-H460 cells […] assessed as change in compactness at 0.35 to 0.7 uM incubated for 48 hrs. Type of series: functional, cell-based. Conditions: dose 0.35-0.7 µM.
Series [22] has as its system DLD-1. In words: Effect on human DLD-1 cells […] assessed as change in circularity at 0.35 to 0.7 uM incubated for 48 hrs. Type of series: functional, cell-based. Conditions: dose 0.35-0.7 µM.
In series [23] the test system is Doxorubicin-resistant NCI-H460/R. The series is described as follows: Effect on human Doxorubicin-resistant NCI-H460/R cells […] assessed as change in diameter at 0.35 to 0.7 uM incubated for 48 hrs. Type of series: functional, cell-based. Conditions: dose 0.35-0.7 µM.
The subject of series [24] is NCI-H460. The series is described as follows: Effect on p62 expression in human NCI-H460 cells at 0.35 to 0.7 uM incubated for 48 hrs by Western blotting analysis. Conditions: dose 0.35-0.7 µM. The format is functional, cell-based.
In series [25] the test system is NCI-H460. In words: Upregulation of p53 expression in human NCI-H460 cells at 0.35 to 0.7 uM incubated for 48 hrs by Western blotting analysis. The format is functional, cell-based. Conditions: dose 0.35-0.7 µM.
For series [26], the system named is Doxorubicin-resistant NCI-H460/R. The series is described as follows: Effect on human Doxorubicin-resistant NCI-H460/R cells […] assessed as change in circularity at 0.35 to 0.7 uM incubated for 48 hrs. Type of series: functional, cell-based. The settings on record: dose 0.35-0.7 µM.
Series [27] deals with NCI-H460. In words: Induction of cell cycle arrest in human NCI-H460 cells assessed as increase in sub-G1 phase cells at 0.35 to 0.7 uM incubated for 48 hrs by propidium iodide staining based flow cytometry analysis. Type of series: functional. Conditions: dose 0.35-0.7 µM.
For series [28], the system named is MRC5. In words: Cytotoxicity against human MRC5 cells at less than 0.5 uM incubated for 48 hrs by SRB method. Type of series: toxicity, cell-based. Conditions: mrc5, 48 h.
The test system of series [29] is NCI-H460. In words: Inhibition of cell proliferation in human NCI-H460 cells at 0.35 to 0.7 uM incubated for 48 hrs by BrdU incorporation assay. Type of series: functional, cell-based. Conditions: dose 0.35-0.7 µM.
Series [30] deals with NCI-H460. The series is described as follows: Inhibition of cell growth in human NCI-H460 cells incubated for 48 hrs by trypan blue exclusion assay. The format is functional, cell-based.
Series [31] concerns Paclitaxel-resistant DLD1-TxR cells. In words: Effect on human Paclitaxel-resistant DLD1-TxR cells […] assessed as change in circularity at 0.35 to 0.7 uM incubated for 48 hrs. Conditions: dose 0.35-0.7 µM. The format is functional, cell-based.
For series [32], the system named is NCI-H460. In words: Upregulation of TP53BP1 expression in human NCI-H460 cells at high concentration incubated for 48 hrs by Western blotting analysis. Type of series: functional, cell-based.
The test system of series [33] is Paclitaxel-resistant DLD1-TxR cells. In words: Effect on human Paclitaxel-resistant DLD1-TxR cells […] assessed as change in diameter at 0.35 to 0.7 uM incubated for 48 hrs. Type of series: functional, cell-based. The settings on record: dose 0.35-0.7 µM.
Series [34] concerns NCI-H460. The series is described as follows: Effect on human NCI-H460 cells […] assessed as change in circularity at 0.35 to 0.7 uM incubated for 48 hrs. The settings on record: dose 0.35-0.7 µM. The format is functional, cell-based.
The test system of series [35] is Doxorubicin-resistant NCI-H460/R. The series is described as follows: Inhibition of human Doxorubicin-resistant NCI-H460/R cells spheroid viability by CellTiter-Glo 3D viability assay. Type of series: functional, cell-based.
The subject of series [36] is NCI-H460. The series is described as follows: Downregulation of procaspase-3 expression in human NCI-H460 cells at 0.35 to 0.7 uM incubated for 48 hrs by Western blotting analysis. Type of series: functional, cell-based. The settings on record: dose 0.35-0.7 µM.
For series [37], the system named is NCI-H460. In words: Induction of ROS accumulation in human NCI-H460 cells at 0.7 to 5 uM incubated for 6 hrs by CM-H2DCFDA staining based flow cytometry analysis. The settings on record: dose 0.7-5 µM. The format is functional, cell-based.
For series [38], the system named is NCI/ADR-RES. The series is described as follows: Potency index, ratio of doxorubicin GI50 to test compound GI50 for human NCI/ADR-RES cells. Type of series: functional.
Series [39] relates to Doxorubicin-resistant NCI-H460/R. In words: Inhibition of human Doxorubicin-resistant NCI-H460/R cells […] assessed as reduction in viability at 2 uM incubated for 48 hrs. The format is functional, cell-based.
Series [40] has as its system NCI-H460. In words: Inhibition of human NCI-H460 cells […] at 50 nM incubated for 48 hrs. The format is functional, cell-based.
Series [41] relates to NCI-H460. The series is described as follows: Inhibition of cell proliferation in human NCI-H460 cells at 50 nM incubated for 48 hrs by BrdU incorporation assay. Type of series: functional, cell-based.

Sequence of ATP-dependent translocase ABCB1 (P08183 whole entry): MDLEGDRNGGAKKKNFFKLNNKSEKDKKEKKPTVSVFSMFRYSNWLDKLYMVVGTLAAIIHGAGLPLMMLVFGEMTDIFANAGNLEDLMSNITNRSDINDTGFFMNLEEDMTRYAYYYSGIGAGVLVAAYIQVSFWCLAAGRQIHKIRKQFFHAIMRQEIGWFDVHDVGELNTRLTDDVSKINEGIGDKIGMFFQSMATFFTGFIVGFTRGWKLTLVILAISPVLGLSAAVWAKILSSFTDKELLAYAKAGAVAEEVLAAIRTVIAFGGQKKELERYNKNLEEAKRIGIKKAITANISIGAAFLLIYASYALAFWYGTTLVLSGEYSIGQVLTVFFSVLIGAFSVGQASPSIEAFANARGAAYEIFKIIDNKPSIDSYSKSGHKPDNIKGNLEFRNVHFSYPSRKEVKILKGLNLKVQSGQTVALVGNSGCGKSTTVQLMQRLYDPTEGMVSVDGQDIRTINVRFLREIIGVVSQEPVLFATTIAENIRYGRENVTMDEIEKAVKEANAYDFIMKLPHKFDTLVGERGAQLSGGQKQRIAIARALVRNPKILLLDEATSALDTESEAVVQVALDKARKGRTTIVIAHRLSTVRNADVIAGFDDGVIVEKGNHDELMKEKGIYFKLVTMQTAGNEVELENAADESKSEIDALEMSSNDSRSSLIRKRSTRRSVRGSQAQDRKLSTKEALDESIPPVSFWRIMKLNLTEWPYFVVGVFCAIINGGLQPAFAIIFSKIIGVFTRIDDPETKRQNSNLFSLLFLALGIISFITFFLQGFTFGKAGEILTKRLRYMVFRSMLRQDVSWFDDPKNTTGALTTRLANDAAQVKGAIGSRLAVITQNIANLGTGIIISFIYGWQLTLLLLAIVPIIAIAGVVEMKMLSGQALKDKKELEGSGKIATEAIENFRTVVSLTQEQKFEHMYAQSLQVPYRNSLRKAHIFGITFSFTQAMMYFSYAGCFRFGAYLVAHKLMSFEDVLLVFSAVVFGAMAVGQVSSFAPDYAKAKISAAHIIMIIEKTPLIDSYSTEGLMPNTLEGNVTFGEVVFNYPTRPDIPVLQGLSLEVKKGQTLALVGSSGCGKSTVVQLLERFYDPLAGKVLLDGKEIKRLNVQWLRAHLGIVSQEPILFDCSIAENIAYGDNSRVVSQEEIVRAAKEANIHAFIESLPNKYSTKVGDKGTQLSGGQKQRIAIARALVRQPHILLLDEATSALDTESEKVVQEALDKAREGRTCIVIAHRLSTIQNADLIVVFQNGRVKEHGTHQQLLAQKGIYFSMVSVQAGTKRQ

With `COC(=O)c1c2c(c[n+]([O-])c1C)C(=O)C=C(NCc1ccccc1)C2=O`, the outcome in [1], in series [6], in [7], in [8], in [10] and in [11] was inactive. Also, the result in series [14], in series [18], in series [19], in series [20], in [21] and in series [22] was inactive. The outcome in series [23], in series [24], in series [25], in series [26], in [31] and in series [33] was inactive. For the same molecule, in [34], the result was inactive. Besides, the outcome in [2], in series [3], in [4], in series [13], in series [15] and in [27] was Active. The outcome in series [32], in series [36] and in series [37] was Active. In addition, the inhibition entry in [5], in series [12], in series [16], in series [29], in series [30] and in series [35] was “Active” in each case. Besides, the Activity entry in series [9] and in series [28] was “Non-Toxic” in each case. For the same molecule, in series [17], the “inhibition (INH)” value was “Active”.

Regarding `COC(=O)c1c2c(c(C)[n+]([O-])c1C)C(=O)C=C(NCc1ccccc1)C2=O`, in series [38], the RatioGI50 amounted to 40.

Turning to `COc1cc([C@@H]2c3cc4c(cc3[C@@H](O[C@@H]3O[C@@H]5CO[C@@H](C)O[C@H]5[C@H](O)[C@H]3O)[C@H]3COC(=O)[C@H]23)OCO4)cc(OC)c1O`, the result in series [39] was inactive.

Turning to `COc1cccc2c1C(=O)c1c(O)c3c(c(O)c1C2=O)C[C@@](O)(C(=O)CO)C[C@@H]3O[C@H]1C[C@H](N)[C@H](O)[C@H](C)O1`, the inhibition result in [40] is “inactive”. In addition, in series [41], the inhibition result was “Active”.
